Measured values taken from article PMC5218480 (PLoS ONE, 2017).

Test system: MV-4-11 cells
Test: Gene expression microarray analysis (Affymetrix PrimeView) and GSEA
Assay type: cell-based, human
Parameters: RFU PODN (11730768_x_at) / Fold change /veh PODN (11730768_x_at) / RFU LINC00158 (11744669_a_at) / Fold change /veh LINC00158 (11744669_a_at) / RFU DUSP10 (11751237_a_at) / Fold change /veh DUSP10 (11751237_a_at) / RFU ID3 (11757404_x_at) / Fold change /veh ID3 (11757404_x_at) / RFU PLEKHG5 (11737974_s_at) / Fold change /veh PLEKHG5 (11737974_s_at) / RFU LRRC4B (11730491_at) / Fold change /veh LRRC4B (11730491_at) / RFU GIMAP4 (11747438_a_at) / Fold change /veh GIMAP4 (11747438_a_at) / RFU KRT8 (11758183_x_at) / Fold change /veh KRT8 (11758183_x_at) / RFU CNN1 (11734310_a_at) / Fold change /veh CNN1 (11734310_a_at) / RFU VPS37D (11726825_at) / Fold change /veh VPS37D (11726825_at) / RFU C10orf10 (11716522_x_at) / Fold change /veh C10orf10 (11716522_x_at) / RFU KIR2DL2 /// KIR2DL4 /// KIR2DL5A /// KIR2DL5B /// KIR2DS1 /// KIR2DS2 /// KIR2DS3 /// KIR2DS4 /// KIR3DL3 /// KIR3DL3 /// KIR3DS1 (11738374_at) / Fold change /veh KIR2DL2 /// KIR2DL4 /// KIR2DL5A /// KIR2DL5B /// KIR2DS1 /// KIR2DS2 /// KIR2DS3 /// KIR2DS4 /// KIR3DL3 /// KIR3DL3 /// KIR3DS1 (11738374_at) / RFU C1QL1 (11718748_at) / Fold change /veh C1QL1 (11718748_at) / RFU TMPRSS4 (11747572_a_at) / Fold change /veh TMPRSS4 (11747572_a_at) / RFU HAMP (11756126_x_at) / Fold change /veh HAMP (11756126_x_at) / RFU RNFT2 (11725882_a_at) / Fold change /veh RNFT2 (11725882_a_at) / RFU NR4A2 (11747474_a_at) / Fold change /veh NR4A2 (11747474_a_at) / RFU ABCC12 (11746883_a_at) / Fold change /veh ABCC12 (11746883_a_at) / RFU TMEM136 (11760407_x_at) / Fold change /veh TMEM136 (11760407_x_at) / RFU CLDN22 /// WWC2 (11732394_at) / Fold change /veh CLDN22 /// WWC2 (11732394_at) / RFU HLA-DPB1 (11760878_x_at) / Fold change /veh HLA-DPB1 (11760878_x_at) / RFU SPINT1 (11716480_a_at) / Fold change /veh SPINT1 (11716480_a_at) / RFU GAP43 (11754022_s_at) / Fold change /veh GAP43 (11754022_s_at) / RFU A4GNT (11735810_at) / Fold change /veh A4GNT (11735810_at) / RFU PRB3 (11715151_x_at) / Fold change /veh PRB3 (11715151_x_at) / RFU TUBB4B (11761932_at) / Fold change /veh TUBB4B (11761932_at) / RFU CAPN14 (11732068_a_at) / Fold change /veh CAPN14 (11732068_a_at) / RFU TMCC2 (11721928_a_at) / Fold change /veh TMCC2 (11721928_a_at) / RFU IRGQ (11745062_a_at) / Fold change /veh IRGQ (11745062_a_at) / RFU FAM174B (11720279_a_at) / Fold change /veh FAM174B (11720279_a_at) / RFU TMPRSS4 (11748680_a_at) / Fold change /veh TMPRSS4 (11748680_a_at) / RFU FAM212B (11763350_a_at) / Fold change /veh FAM212B (11763350_a_at) / RFU PLEKHG5 (11743358_a_at) / Fold change /veh PLEKHG5 (11743358_a_at) / RFU ZSCAN30 (11745921_a_at) / Fold change /veh ZSCAN30 (11745921_a_at) / RFU CMKLR1 (11741424_a_at) / Fold change /veh CMKLR1 (11741424_a_at) / RFU LOC101060620 /// MAPK8IP1 (11723275_at) / Fold change /veh LOC101060620 /// MAPK8IP1 (11723275_at) / RFU SPTSSB (11747773_x_at) / Fold change /veh SPTSSB (11747773_x_at) / RFU PRSS12 (11739890_at) / Fold change /veh PRSS12 (11739890_at) / RFU BIN1 (11741810_x_at) / Fold change /veh BIN1 (11741810_x_at) / RFU WNT11 (11732464_a_at) / Fold change /veh WNT11 (11732464_a_at) / RFU C10orf10 (11716521_a_at) / Fold change /veh C10orf10 (11716521_a_at) / RFU C5orf56 (11738089_at) / Fold change /veh C5orf56 (11738089_at) / RFU CYB561 (11721691_x_at) / Fold change /veh CYB561 (11721691_x_at) / RFU ANKRD19P (11752326_a_at) / Fold change /veh ANKRD19P (11752326_a_at) / RFU OR2T12 /// OR2T33 /// OR2T8 (11738714_s_at) / Fold change /veh OR2T12 /// OR2T33 /// OR2T8 (11738714_s_at) / RFU VCAN (11748164_a_at) / Fold change /veh VCAN (11748164_a_at) / RFU JSRP1 (11732532_at) / Fold change /veh JSRP1 (11732532_at) / RFU KRTAP10-11 (11738290_x_at) / Fold change /veh KRTAP10-11 (11738290_x_at) / RFU MYO3A (11730013_a_at) / Fold change /veh MYO3A (11730013_a_at) / RFU EBF3 (11725865_a_at) / Fold change /veh EBF3 (11725865_a_at) / RFU CAMK2N1 (11719241_x_at) / Fold change /veh CAMK2N1 (11719241_x_at) / RFU C5orf56 (11738088_a_at) / Fold change /veh C5orf56 (11738088_a_at) / RFU OLFML3 (11715873_a_at) / Fold change /veh OLFML3 (11715873_a_at) / RFU LOC100653217 /// NTM (11731650_a_at) / Fold change /veh LOC100653217 /// NTM (11731650_a_at) / RFU MAPK11 (11762145_a_at) / Fold change /veh MAPK11 (11762145_a_at) / RFU FIZ1 (11724087_x_at) / Fold change /veh FIZ1 (11724087_x_at) / RFU OASL (11726364_x_at) / Fold change /veh OASL (11726364_x_at) / RFU SOX15 (11748057_x_at) / Fold change /veh SOX15 (11748057_x_at) / RFU CD79A (11719716_a_at) / Fold change /veh CD79A (11719716_a_at) / RFU HIST1H1D (11736915_at) / Fold change /veh HIST1H1D (11736915_at) / RFU CASKIN2 (11723855_a_at) / Fold change /veh CASKIN2 (11723855_a_at) / RFU LOC730098 (11760151_x_at) / Fold change /veh LOC730098 (11760151_x_at) / RFU OR4N2 (11742367_at) / Fold change /veh OR4N2 (11742367_at) / RFU PRRT2 (11749266_a_at) / Fold change /veh PRRT2 (11749266_a_at) / RFU SNX32 (11753110_a_at) / Fold change /veh SNX32 (11753110_a_at) / RFU CDHR5 (11726645_a_at) / Fold change /veh CDHR5 (11726645_a_at) / RFU RCAN1 (11760418_a_at) / Fold change /veh RCAN1 (11760418_a_at) / RFU FAM167A (11723789_a_at) / Fold change /veh FAM167A (11723789_a_at) / RFU FAM26E (11764081_at) / Fold change /veh FAM26E (11764081_at) / RFU ISYNA1 (11749810_s_at) / Fold change /veh ISYNA1 (11749810_s_at) / RFU ACY1 (11761880_at) / Fold change /veh ACY1 (11761880_at) / RFU 11764098_at / Fold change /veh 11764098_at / RFU SAMD14 (11745864_x_at) / Fold change /veh SAMD14 (11745864_x_at) / RFU NPB (11741838_a_at) / Fold change /veh NPB (11741838_a_at) / RFU TMPRSS6 (11731388_a_at) / Fold change /veh TMPRSS6 (11731388_a_at) / RFU KRTAP10-2 (11738614_at) / Fold change /veh KRTAP10-2 (11738614_at) / RFU ARHGAP8 /// PRR5-ARHGAP8 (11727945_x_at) / Fold change /veh ARHGAP8 /// PRR5-ARHGAP8 (11727945_x_at) / RFU KRTAP5-7 /// NADSYN1 (11734609_at) / Fold change /veh KRTAP5-7 /// NADSYN1 (11734609_at) / RFU RASL12 (11751679_a_at) / Fold change /veh RASL12 (11751679_a_at) / RFU CDKN2B (11736163_a_at) / Fold change /veh CDKN2B (11736163_a_at) / RFU PRF1 (11729649_at) / Fold change /veh PRF1 (11729649_at) / RFU, ZNF638 /// ZNF638-IT1 / Fold change vs veh, ZNF638 /// ZNF638-IT1 / RFU, PANK3 / Fold change vs veh, PANK3 / RFU, SH3YL1 / Fold change vs veh, SH3YL1 / RFU, ZEB2 / Fold change vs veh, ZEB2 / RFU, NRIP1 / Fold change vs veh, NRIP1 / RFU, PTTG1IP / Fold change vs veh, PTTG1IP / RFU, CAPN2 / Fold change vs veh, CAPN2 / RFU, MED14 / Fold change vs veh, MED14 / RFU, SNORA58 / Fold change vs veh, SNORA58 / RFU, C1orf63 / Fold change vs veh, C1orf63 / RFU, LRRFIP1 / Fold change vs veh, LRRFIP1 / RFU, NDUFAF7 / Fold change vs veh, NDUFAF7 / RFU, SLC12A2 / Fold change vs veh, SLC12A2 / RFU, IBTK / Fold change vs veh, IBTK / RFU, ESF1 / Fold change vs veh, ESF1 / Fold change vs veh, TMEM50B / RFU, TAOK1 / Fold change vs veh, TAOK1 / RFU, ACBD3 / Fold change vs veh, ACBD3 / RFU, TMA16 / Fold change vs veh, TMA16 / RFU, RWDD3 / Fold change vs veh, RWDD3 / RFU, BCAT1 / Fold change vs veh, BCAT1 / RFU, EDEM3 / Fold change vs veh, EDEM3 / RFU, TMEM33 / Fold change vs veh, TMEM33 / RFU, WDR75 / Fold change vs veh, WDR75 / RFU, AHCTF1 / Fold change vs veh, AHCTF1 / RFU, TFRC / Fold change vs veh, TFRC / RFU, ZDHHC17 / Fold change vs veh, ZDHHC17 / RFU, NOM1 / Fold change vs veh, NOM1 / RFU, ARL8B / Fold change vs veh, ARL8B / RFU, ZBTB11 / Fold change vs veh, ZBTB11 / RFU, TAMM41 / Fold change vs veh, TAMM41 / RFU, KIAA1704 /// LOC100996395 / Fold change vs veh, KIAA1704 /// LOC100996395 / RFU, ING1 / Fold change vs veh, ING1 / RFU, TRMT61B / Fold change vs veh, TRMT61B / RFU, FUBP3 / Fold change vs veh, FUBP3 / RFU, TP53 / Fold change vs veh, TP53 / RFU, TNKS2 / Fold change vs veh, TNKS2 / RFU, ZFP14 / Fold change vs veh, ZFP14 / RFU, ACTR2 / Fold change vs veh, ACTR2 / RFU, PPP3R1 / Fold change vs veh, PPP3R1 / RFU, PIK3R1 / Fold change vs veh, PIK3R1 / RFU, HNRNPA1 / Fold change vs veh, HNRNPA1 / RFU, RNF170 / Fold change vs veh, RNF170 / RFU, ZNF28 / Fold change vs veh, ZNF28 / RFU, RNGTT / Fold change vs veh, RNGTT / RFU, OGT / Fold change vs veh, OGT / RFU, BRD1 / Fold change vs veh, BRD1 / RFU, MARS / Fold change vs veh, MARS / RFU, ZNF655 / Fold change vs veh, ZNF655 / RFU, FAHD1 / Fold change vs veh, FAHD1 / RFU, BDP1 / Fold change vs veh, BDP1 / RFU, LRRCC1 / Fold change vs veh, LRRCC1 / RFU, ARID1A / Fold change vs veh, ARID1A / RFU, ZNF146 / Fold change vs veh, ZNF146 / RFU, ZNF330 / Fold change vs veh, ZNF330 / RFU, GPN3 / Fold change vs veh, GPN3 / RFU, C9orf123 / Fold change vs veh, C9orf123 / RFU, N4BP2L2 / Fold change vs veh, N4BP2L2 / RFU, ARFIP1 / Fold change vs veh, ARFIP1 / RFU, FAM179B / Fold change vs veh, FAM179B / RFU, BCL10 / Fold change vs veh, BCL10 / RFU, UHRF1BP1L / Fold change vs veh, UHRF1BP1L / RFU, BET1 / Fold change vs veh, BET1 / RFU, CNOT2 / Fold change vs veh, CNOT2 / RFU, ZNF268 / Fold change vs veh, ZNF268 / Fold change vs veh, ZNF507 / RFU, DGCR2 / Fold change vs veh, DGCR2 / RFU, WDSUB1 / Fold change vs veh, WDSUB1 / Fold change vs veh, HSP90B1 /// MIR3652 / RFU, ADSS / Fold change vs veh, ADSS / RFU, GK / Fold change vs veh, GK / RFU, ZNF148 / Fold change vs veh, ZNF148 / RFU, TAF9 / Fold change vs veh, TAF9 / RFU, SLC1A5 / Fold change vs veh, SLC1A5 / RFU, SLMO2 / Fold change vs veh, SLMO2 / RFU, ABCC4 / Fold change vs veh, ABCC4 / RFU, LOC101060439 /// RAP1B / Fold change vs veh, LOC101060439 /// RAP1B / RFU, RFX7 / Fold change vs veh, RFX7 / RFU, GTPBP10 / Fold change vs veh, GTPBP10 / RFU, CNEP1R1 / Fold change vs veh, CNEP1R1 / RFU, BIVM-ERCC5 /// ERCC5 / Fold change vs veh, BIVM-ERCC5 /// ERCC5 / RFU, ILF3 / Fold change vs veh, ILF3 / RFU 11762660_at / Fold change /veh 11762660_at / RFU VCAN (11757783_s_at) / Fold change /veh VCAN (11757783_s_at) / RFU DDX43 (11728927_at) / Fold change /veh DDX43 (11728927_at) / RFU KRT8 (11758188_x_at) / Fold change /veh KRT8 (11758188_x_at) / RFU NKD1 (11759106_at) / Fold change /veh NKD1 (11759106_at) / RFU SRD5A1 (11742802_a_at) / Fold change /veh SRD5A1 (11742802_a_at) / RFU TPSAB1 /// TPSB2 (11721975_s_at) / Fold change /veh TPSAB1 /// TPSB2 (11721975_s_at) / RFU GSTM3 (11746129_a_at) / Fold change /veh GSTM3 (11746129_a_at) / RFU IL23R (11737362_x_at) / Fold change /veh IL23R (11737362_x_at) / RFU TMEM51 (11727254_a_at) / Fold change /veh TMEM51 (11727254_a_at) / RFU PIWIL2 (11732686_x_at) / Fold change /veh PIWIL2 (11732686_x_at) / RFU ORM1 (11744905_x_at) / Fold change /veh ORM1 (11744905_x_at) / RFU CCDC152 (11743942_at) / Fold change /veh CCDC152 (11743942_at) / RFU ECM1 (11717891_a_at) / Fold change /veh ECM1 (11717891_a_at) / RFU IL23R (11748794_a_at) / Fold change /veh IL23R (11748794_a_at) / RFU TNFAIP8L3 (11732012_x_at) / Fold change /veh TNFAIP8L3 (11732012_x_at) / RFU MBOAT4 (11741988_at) / Fold change /veh MBOAT4 (11741988_at) / RFU 11764193_at / Fold change /veh 11764193_at / RFU TMEM53 (11763286_at) / Fold change /veh TMEM53 (11763286_at) / RFU MAGEB2 (11727129_at) / Fold change /veh MAGEB2 (11727129_at) / RFU TMEM200A (11744735_a_at) / Fold change /veh TMEM200A (11744735_a_at) / RFU CCDC152 (11751479_a_at) / Fold change /veh CCDC152 (11751479_a_at) / RFU FAM211A (11726209_a_at) / Fold change /veh FAM211A (11726209_a_at) / RFU RGS16 (11746705_a_at) / Fold change /veh RGS16 (11746705_a_at) / RFU VCAN (11755009_s_at) / Fold change /veh VCAN (11755009_s_at) / RFU RHOB (11743442_s_at) / Fold change /veh RHOB (11743442_s_at) / RFU RGS16 (11720943_a_at) / Fold change /veh RGS16 (11720943_a_at) / RFU RGS16 (11720944_at) / Fold change /veh RGS16 (11720944_at) / RFU, VPS4B / Fold change vs veh, VPS4B / RFU, CREB1 / Fold change vs veh, CREB1 / RFU, DNAJC13 / Fold change vs veh, DNAJC13 / RFU, GNAQ / Fold change vs veh, GNAQ / RFU, CDK5R1 / Fold change vs veh, CDK5R1 / RFU, ZRANB3 / Fold change vs veh, ZRANB3 / RFU, CUL4A / Fold change vs veh, CUL4A / RFU, CCNY / Fold change vs veh, CCNY / RFU, UFL1 / Fold change vs veh, UFL1 / RFU, COG3 / Fold change vs veh, COG3 / RFU, DIAPH2 / Fold change vs veh, DIAPH2 / RFU, SKA2 / Fold change vs veh, SKA2 / RFU, AFF3 / Fold change vs veh, AFF3 / RFU, LMF1 / Fold change vs veh, LMF1 / RFU, IPO11 / Fold change vs veh, IPO11 / RFU, DFFB / Fold change vs veh, DFFB / RFU, FOXP1 / Fold change vs veh, FOXP1 / RFU, CARD8 / Fold change vs veh, CARD8 / RFU, STRN3 / Fold change vs veh, STRN3 / RFU, ADK / Fold change vs veh, ADK / RFU, RASSF2 / Fold change vs veh, RASSF2 / RFU, WIPF1 / Fold change vs veh, WIPF1 / RFU, LARP1B / Fold change vs veh, LARP1B / RFU, RASA1 / Fold change vs veh, RASA1 / RFU, RB1 / Fold change vs veh, RB1 / RFU, PPFIA1 / Fold change vs veh, PPFIA1 / RFU, MAT2A / Fold change vs veh, MAT2A / RFU, CCT5 / Fold change vs veh, CCT5 / RFU, WDR92 / Fold change vs veh, WDR92 / RFU, CUX1 / Fold change vs veh, CUX1 / RFU, TTC7A / Fold change vs veh, TTC7A / RFU, TMEM135 / Fold change vs veh, TMEM135 / RFU, DEPTOR / Fold change vs veh, DEPTOR / RFU, CPM / Fold change vs veh, CPM / RFU, DNAJB6 / Fold change vs veh, DNAJB6 / RFU, CACNA2D3 / Fold change vs veh, CACNA2D3 / RFU, DTX4 / Fold change vs veh, DTX4 / RFU, TFCP2 / Fold change vs veh, TFCP2 / RFU, GMCL1 /// GMCL1P1 / Fold change vs veh, GMCL1 /// GMCL1P1 / RFU, AEBP2 / Fold change vs veh, AEBP2 / RFU, SNHG1 /// SNORD22 /// SNORD25 /// SNORD26 /// SNORD27 /// SNORD28 /// SNORD29 /// SNORD31 / Fold change vs veh, SNHG1 /// SNORD22 /// SNORD25 /// SNORD26 /// SNORD27 /// SNORD28 /// SNORD29 /// SNORD31 / Fold change (Aza/veh), C12orf56 (ProbeSet 11735607_a_at) / Fold change (ACY-1035/veh), C12orf56 (ProbeSet 11735607_a_at) / Fold change (Aza/veh), FGFR1OP (ProbeSet 11751329_s_at) / Fold change (ACY-1035/veh), FGFR1OP (ProbeSet 11751329_s_at) / Fold change (Aza/veh), VPS36 (ProbeSet 11739960_a_at) / Fold change (ACY-1035/veh), VPS36 (ProbeSet 11739960_a_at) / RFU SYPL1 (11715823_x_at) / Fold change /veh SYPL1 (11715823_x_at) / RFU IGFBP7 (11715501_s_at) / Fold change /veh IGFBP7 (11715501_s_at) / RFU REEP3 (11722064_at) / Fold change /veh REEP3 (11722064_at) / RFU IGLL1 (11728026_x_at) / Fold change /veh IGLL1 (11728026_x_at): dose or concentration left out as unconfirmed
Conditions: ProbeSet 11733108_at; LIST D

**Q.** `Nc1ccc(-c2cccs2)cc1NC(=O)c1ccc2c(c1)cc(C1CC1)n2CCN1CCOCC1` [ACY-1035] was tested. Which “RFU, GNAQ” value did it give?
**A.** 275.03 RFU
